Earlier results, collected in US7291720B2, “Use of sublethal concentrations of anti-invasin compounds to therapeutically or prophylactically treat fungal infections” (priority 2000, dated 2007).

Assays:
[1] = system: susceptible isolate of C. albicans; conditions: in vitro
[2] = about half necessitated discontinuation of therapy

For `OC(Cn1cncn1)(Cn1cncn1)c1ccc(F)cc1F` [fluconazole], the “concentration that reduces hyphal formation” value [1] is given as 0.1 µg/mL and the “patients with adverse reactions, possibly related to the treatment” value [2] is given as “over 5%”.
